Laboratory results taken from patent US20230002373A1, “COMPOUNDS AND COMPOSITIONS FOR TREATING CONDITIONS ASSOCIATED WITH STING ACTIVITY” (IFM Due, Inc., priority 2019, published 2023).

Biological target: T1, hSTING (Homo sapiens, UniProt Q86WV6, G230A/H232R/R293Q/R71H)
T1 construct: host or cells: THP1-Dual KO-IFNAR2 cells
Test: STING reporter assay (luciferase) in THP1-Dual KO-IFNAR2 cells stimulated with 2′3′cGAMP
Format: cell-based
Conditions: 15 μM 2′3′cGAMP, 24 h
Protocol: STING pathway activation by the compounds described herein was measured using THP1-Dual™ cells (KO-IFNAR2).
THP1-Dual™ KO-IFNAR2 Cells (obtained from invivogen) were maintained in RPMI, 10% FCS, 5 ml P/S, 2 mM L-glut, 10 mM Hepes, and 1 mM sodium pyruvate. Compounds were spotted in empty 384 well tissue culture plates (Greiner 781182) by Echo for a final concentration of 0.0017-100 μM. Cells were plated into the TC plates […], 2×10E6 cells/mL. For activation with STING ligand, 2′3′cGAMP (MW 718.38, obtained from Invivogen), was prepared in Optimem media.
The following solutions were prepared for each 1×384 plate: • Solution A: 2 mL Optimem with one of the following stimuli: • 60 μL of 10 mM 2′3′cGAMP->150 μM stock • Solution B: 2 mL Optimem with 60 μL Lipofectamine 2000->Incubate 5 min at RT
2 mL of solution A and 2 ml Solution B was mixed and incubated for 20 min at room temperature (RT). 20 uL of transfection solution (A+B) was added on top of the plated cells, with a final 2′3′cGAMP concentration of 15 μM. The plates were then centrifuged immediately at 340 g for 1 minute, after which they were incubated at 37° C., 5% CO2, >98% humidity for 24 h. Luciferase reporter activity was then measured. EC50 values were calculated by using standard methods known in the art.
Luciferase reporter assay: 10 μL of supernatant from the assay was transferred to white 384-plate with flat bottom and squared wells. One pouch of QUANTI-Luc™ Plus was dissolved in 25 mL of water. 100 μL of QLC Stabilizer per 25 mL of QUANTI-Luc™ Plus solution was added. 50 μL of QUANTI-Luc™ Plus/QLC solution per well was then added. Luminescence was measured on a Platereader (e.g., Spectramax I3X (Molecular Devices GF3637001)).
Luciferase reporter activity was then measured. EC50 values were calculated by using standard methods known in the art.

T1 sequence (Q86WV6 whole entry R71H/G230A/H232R/R293Q): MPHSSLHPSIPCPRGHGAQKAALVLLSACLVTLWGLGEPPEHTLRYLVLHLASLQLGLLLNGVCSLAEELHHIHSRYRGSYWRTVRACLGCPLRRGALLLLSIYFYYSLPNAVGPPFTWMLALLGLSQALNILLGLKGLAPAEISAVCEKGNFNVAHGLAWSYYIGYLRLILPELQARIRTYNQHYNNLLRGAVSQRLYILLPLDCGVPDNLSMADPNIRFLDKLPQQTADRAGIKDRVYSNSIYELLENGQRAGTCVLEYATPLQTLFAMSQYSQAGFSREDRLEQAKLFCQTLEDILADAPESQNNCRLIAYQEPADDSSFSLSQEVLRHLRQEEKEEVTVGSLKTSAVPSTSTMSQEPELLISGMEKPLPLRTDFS

EC50 (class symbols) | EC50 (numeric bounds) | SMILES
5 to 100 µM | – | O=C(NCc1ccccc1C(F)(F)F)C(=O)Nc1c[nH]c2ccncc12 [Compound 172, N1-(1H-pyrrolo[3,2-c]pyridin-3-yl)-N2-(2-(trifluoromethyl)-benzyl)-oxalamide]
1 to 5 µM | – | O=C(NCCOc1ccc(C(F)(F)F)cc1)C(=O)Nc1c[nH]c2ccncc12 [Compound 159, N1-(1H-pyrrolo[3,2-c]pyridin-3-yl)-N2-(2-(4-(trifluoromethyl)-phenoxy)ethyl)oxalamide]
5 to 100 µM | – | O=C(Nc1c[nH]c2ncc(F)cc12)C(=O)N[C@@H]1CCC2(CCCCC2)C1 (single isomer, unassigned) [Compound 202]
1 to 5 µM | – | Cc1ccccc1N1C2CCC1CC(NC(=O)C(=O)Nc1c[nH]c3ncc(F)cc13)C2 (stereo not shown) [Compound 209, N-[5-fluoro-1H-pyrrolo[2,3-b]pyridin-3-yl]-N′-[8-(2-methylphenyl)-8-azabicyclo[3.2.1]octan-3-yl]ethanediamide]
1 to 5 µM | – | O=C(Nc1ccc(C(F)(F)F)c(Cl)c1)C(=O)Nc1c[nH]c2cccnc12 [Compound 217]
0.2 to 1 µM | – | Cc1c(CNC(=O)C(=O)Nc2c[nH]c3ccncc23)cccc1C(F)(F)F [Compound 142, N1-(2-methyl-3-(trifluoromethyl)-benzyl)-N2-(1H-pyrrolo[3,2-c]pyridin-3-yl)oxalamide]
1 to 5 µM | – | O=C(Nc1c[nH]c2ncc(F)cc12)C(=O)N[C@H]1CCC2(CCCCC2)C1 (single isomer, unassigned) [Compound 201]
5 to 100 µM | – | O=C(Nc1c[nH]c2ncc(F)cc12)C(=O)NC1CCC2(CCCC2)C1 (stereo not shown) [Compound 203]
0.2 to 1 µM | – | O=C(Nc1c[nH]c2ncc(F)cc12)C(=O)NC1CCC2(CCCC2)CC1 [Compound 198, N-(5-fluoro-1H-pyrrolo[2,3-b]pyridin-3-yl)-N′-(spiro[4.5]decan-8-yl)oxalamide]
1 to 5 µM | – | O=C(NCc1cccc(C(F)(F)F)c1F)C(=O)Nc1c[nH]c2ccncc12 [Compound 170, N1-(2-fluoro-3-(trifluoromethyl)-benzyl)-N2-(1H-pyrrolo[3,2-c]pyridin-3-yl)oxalamide]
– | > 30 µM | O=C(NCc1cccc(OC(F)(F)F)c1)C(=O)Nc1c[nH]c2cccnc12 [Compound 151, N1-(1H pyrrolo[3,2-b]pyridin-3-yl)-N2-(3-(trifluoro-methoxy)benzyl)oxalamide]
– | > 30 µM | O=C(NCc1cccc(N2CCCCC2)c1)C(=O)Nc1c[nH]c2cccnc12 [Compound 141, N1-(3-(piperidin-1-yl)benzyl)-N2-(1H-pyrrolo[3,2-b]pyridin-3-yl)oxalamide]
1 to 5 µM | – | O=C(NCc1ccc(Cl)cc1C(F)(F)F)C(=O)Nc1c[nH]c2cccnc12 [Compound 140, N1-(4-chloro-2-(trifluoromethyl)benzyl)-N2-(1H-pyrrolo[3,2-b]pyridin-3-yl)oxalamide]
1 to 5 µM | – | Cc1ccc(CNC(=O)C(=O)Nc2c[nH]c3ccc(-c4cnn(C)c4)nc23)cc1C(F)(F)F [Compound 130]
0.2 to 1 µM | – | COc1ccc2[nH]cc(NC(=O)C(=O)NCc3ccc(C)c(C(F)(F)F)c3)c2n1 [Compound 215]
5 to 100 µM | – | O=C(NCC1CC2C=CC1C2)C(=O)Nc1c[nH]c2cccnc12 (stereo not shown) [Compound 111, N^1-(bicyclo[2.2.1]hept-5-en-2-ylmethyl)-N^2-(1H-pyrrolo[3,2-b]pyridin-3-yl)oxalamide]
1 to 5 µM | – | O=C(NCc1ccc(Cl)c(OC(F)(F)F)c1)C(=O)Nc1c[nH]c2c(F)cncc12 [Compound 208]
– | > 30 µM | O=C(NCC1(c2ccccc2)CC1)C(=O)Nc1c[nH]c2ccncc12 [Compound 156, N1-((1-phenylcyclopropyl)-methyl)-N2-(1H-pyrrolo[3,2-c]pyridin-3-yl)oxalamide]
1 to 5 µM | – | O=C(NCc1ccc(Cl)c(C(F)(F)F)c1)C(=O)Nc1c[nH]c2cccnc12 [Compound 145, N1-(4-chloro-3-(trifluoromethyl)benzyl)-N2-(1H-pyrrolo[3,2-b]pyridin-3-yl)oxalamide]
0.2 to 1 µM | – | O=C(Nc1ccc(C(F)(F)F)c(Cl)c1)C(=O)Nc1c[nH]c2ccncc12 [Compound 216]

EC50 (class symbols) | EC50 (numeric bounds) | SMILES
– | > 30 µM | O=C(NCCOc1ccc(C(F)(F)F)cc1)C(=O)Nc1c[nH]c2cccnc12 [Compound 133, N1-(1H-pyrrolo[3,2-b]pyridin-3-yl)-N2-(2-(4-(trifluoromethyl)phenoxy)ethyl)oxalamide]
5 to 100 µM | – | O=C(NCCc1ncc(C(F)(F)F)cc1Cl)C(=O)Nc1c[nH]c2ccncc12 [Compound 166, N1-(2-(3-chloro-5-(trifluoromethyl)-pyridin-2-yl)ethyl)-N2-(1H-pyrrolo[3,2-c]pyridin-3-yl)oxalamide]
1 to 5 µM | – | O=C(Nc1ccc(C2CCCCC2)nc1)C(=O)Nc1c[nH]c2ncc(F)cc12 [Compound 102, N^1-(6-cyclohexyl-pyridin-3-yl)-N^2-(5-fluoro-1H-pyrrolo[2,3-b]pyridin-3-yl)oxalamide]
5 to 100 µM | – | O=C(Nc1c[nH]c2ncc(F)cc12)C(=O)NC1CCC2(CCCCC2)C1 (stereo not shown) [Compound 204, N-(5-fluoro-1H-pyrrolo[2,3-b]pyridin-3-yl)-N′-(spiro[4.5]decan-2-yl)oxalamide]
1 to 5 µM | – | COc1cc2c(NC(=O)C(=O)NCc3ccc(C)c(C(F)(F)F)c3)c[nH]c2cn1 [Compound 214]
0.2 to 1 µM | – | O=C(NCc1ccc(Cl)c(OC(F)(F)F)c1)C(=O)Nc1c[nH]c2ccncc12 [Compound 212]
0.2 to 1 µM | – | Cc1ccc2[nH]cc(NC(=O)C(=O)Nc3ccc(C4CCCCC4)cn3)c2n1 [Compound 207]
1 to 5 µM | – | Cc1c(NC(=O)C(=O)Nc2c[nH]c3ccncc23)cccc1C(F)(F)F [Compound 175, N1-(2-methyl-3-(trifluoromethyl)-phenyl)-N2-(1H-pyrrolo[3,2-c]pyridin-3-yl)oxalamide]
0.2 to 1 µM | – | O=C(NCc1ccc(-c2ccccc2C(F)(F)F)cc1)C(=O)Nc1c[nH]c2ccncc12 [Compound 120, N^1-(1H-pyrrolo[3,2-c]pyridin-3-yl)-N^2-((2′-(trifluoro-methyl)-[1,1′-biphenyl]-4-yl)methyl)oxalamide]
– | > 30 µM | O=C(Nc1ccc(OCC(F)(F)F)nc1)C(=O)Nc1c[nH]c2cccnc12 [Compound 150, N1-(1H-pyrrolo[3,2-b]pyridin-3-yl)-N2-(6-(2,2,2-trifluoroethoxy)pyridin-3-yl)oxalamide]
1 to 5 µM | – | O=C(Nc1ccc(C(F)(F)F)cn1)C(=O)Nc1c[nH]c2ccncc12 [Compound 113, N^1-(1H-pyrrolo[3,2-c]pyridin-3-yl)-N^2-(5-(trifluoromethyl)pyridin-2-yl)oxalamide]
5 to 100 µM | – | O=C(NCc1ccc(C(F)(F)F)c(Cl)c1)C(=O)Nc1c[nH]c2ncc(F)c(F)c12 [Compound 131]
– | > 30 µM | O=C(NCC1CCCC(F)(F)C1)C(=O)Nc1c[nH]c2ccncc12 (stereo not shown) [Compound 146, N1-((3,3-difluorocyclohexyl)-methyl)-N2-(1H-pyrrolo[3,2-c]pyridin-3-yl)oxalamide]
0.2 to 1 µM | – | O=C(Nc1c[nH]c2ncc(F)cc12)C(=O)NC1CCC2(CCCCC2)CC1 [Compound 103, N^1-(5-fluoro-1H-pyrrolo[2,3-b]pyridin-3-yl)-N^2-(spiro[5.5]undecan-3-yl)oxalamide]
1 to 5 µM | – | CC(NC(=O)C(=O)Nc1c[nH]c2cccnc12)c1ccc(C(F)(F)F)cc1 (stereo not shown) [Compound 143, N1-(1H pyrrolo[3,2-b]pyridin-3-yl)-N2-(1-(4-(trifluoromethyl)phenyl)ethyl)oxalamide]
– | > 30 µM | O=C(NCC1CCc2ccccc2O1)C(=O)Nc1c[nH]c2ccncc12 (stereo not shown) [Compound 154, N1-(chroman-2-ylmethyl)-N2-(1H-pyrrolo[3,2-c]pyridin-3-yl)oxalamide]
1 to 5 µM | – | Cc1cc(F)c(Cl)cc1NC(=O)C(=O)Nc1c[nH]c2ccncc12 [Compound 162, N1-(5-chloro-4-fluoro-2-methylphenyl)-N2-(1H-pyrrolo[3,2-c]pyridin-3-yl)oxalamide]
5 to 100 µM | – | O=C(Nc1c[nH]c2ncc(F)cc12)C(=O)N[C@@H]1CCCC2(CCCCC2)C1 (single isomer, unassigned) [Compound 197, N-[5-fluoro-1H-pyrrolo[2,3-b]pyridin-3-yl]-N′-[(2R or 2S)-spiro[5.5]undecan-2-yl]ethanediamide]
– | > 30 µM | O=C(NCC1CCc2ccccc2O1)C(=O)Nc1c[nH]c2cccnc12 (stereo not shown) [Compound 132, N1-(chroman-2-ylmethyl)-N2-(1H-pyrrolo[3,2-b]pyridin-3-yl)oxalamide]
5 to 100 µM | – | O=C(NCC12CC3CC(CC(C3)C1)C2)C(=O)Nc1c[nH]c2ncc(F)cc12 [Compound 105, N^1-(adamantan-1-ylmethyl)-N^2-(5-fluoro-1H-pyrrolo[2,3-b]pyridin-3-yl)oxalamide]
